Data on four compounds can be found in ChEMBL document CHEMBL1201862, “PubChem BioAssay data set” (2004).

The source made the active and inactive calls.

Type in all cases: functional
Assay [1] concerns the target Activin receptor type-1 (Homo sapiens, UniProt Q04771). In words: Navigating the Kinome. Panel member name: ACVR1.
The target in assay [2] is Dual specificity protein kinase CLK4 (Homo sapiens, UniProt Q9HAZ1).
Assay [3] concerns the target Dual specificity tyrosine-phosphorylation-regulated kinase 1A (Homo sapiens, UniProt Q13627).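 Also: measured against DYRK1A as one member of a broad kinome profiling panel.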
The target in assay [4] is Serine/threonine-protein kinase Nek2 (Homo sapiens, UniProt P51955).
Assay [5] addresses Dual specificity tyrosine-phosphorylation-regulated kinase 1B (Homo sapiens, UniProt Q9Y463). In words: Navigating the Kinome. Panel member name: DYRK1B.
For assay [6], the target named is Leucine-rich repeat serine/threonine-protein kinase 2 (Homo sapiens, UniProt Q5S007).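 Also: value from a broad kinome-wide panel profiling study in which LRRK2 was one of the kinases tested.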
For assay [7], the target named is Platelet-derived growth factor receptor alpha (Homo sapiens, UniProt P16234). In words: Navigating the Kinome. Panel member name: PDGFRA.
Assay [8] concerns the target Cyclin-dependent kinase 5 (Homo sapiens, UniProt Q00535).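 Also: CDK5 measured as one member of a kinase profiling panel.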
For assay [9], the target named is T1, Serine/threonine-protein kinase Chk1 (Homo sapiens, UniProt O14757).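 Also: measured as one member of a kinome-wide kinase profiling panel.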
T1 sequence (O14757 whole entry): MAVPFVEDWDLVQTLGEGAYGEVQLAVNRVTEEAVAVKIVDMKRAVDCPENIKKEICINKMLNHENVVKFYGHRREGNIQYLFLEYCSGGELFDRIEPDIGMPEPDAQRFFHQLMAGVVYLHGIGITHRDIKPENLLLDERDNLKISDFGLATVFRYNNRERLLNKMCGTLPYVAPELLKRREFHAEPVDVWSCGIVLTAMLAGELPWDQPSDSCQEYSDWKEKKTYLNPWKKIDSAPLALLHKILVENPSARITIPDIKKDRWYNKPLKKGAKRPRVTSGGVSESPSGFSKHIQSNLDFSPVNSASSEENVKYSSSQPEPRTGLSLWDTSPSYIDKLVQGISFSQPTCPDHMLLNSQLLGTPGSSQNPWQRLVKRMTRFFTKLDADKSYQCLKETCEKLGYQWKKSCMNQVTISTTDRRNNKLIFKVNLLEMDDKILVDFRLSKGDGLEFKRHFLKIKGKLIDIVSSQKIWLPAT

For assay [10], the target named is Mitogen-activated protein kinase kinase kinase 10 (Homo sapiens, UniProt Q02779). In words: Navigating the Kinome. Panel member name: MAP3K10.
Assay [11] has as its target Serine/threonine-protein kinase D2 (Homo sapiens, UniProt Q9BZL6).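 Also: measured against PRKD2 as one member of a kinome-wide kinase profiling panel.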
Assay [12] has as its target MAP kinase-activated protein kinase 3 (Homo sapiens, UniProt Q16644).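 Also: value comes from a kinome-wide profiling panel in which MAPKAPK3 is one of the panel members.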
Assay [13] has as its target Protein kinase C gamma type (Homo sapiens, UniProt P05129).
The target of assay [14] is G protein-coupled receptor kinase 5 (Homo sapiens, UniProt P34947). In words: Navigating the Kinome. Panel member name: GPRK5.

Sequence of Dual specificity protein kinase CLK4 (Q9HAZ1 whole entry): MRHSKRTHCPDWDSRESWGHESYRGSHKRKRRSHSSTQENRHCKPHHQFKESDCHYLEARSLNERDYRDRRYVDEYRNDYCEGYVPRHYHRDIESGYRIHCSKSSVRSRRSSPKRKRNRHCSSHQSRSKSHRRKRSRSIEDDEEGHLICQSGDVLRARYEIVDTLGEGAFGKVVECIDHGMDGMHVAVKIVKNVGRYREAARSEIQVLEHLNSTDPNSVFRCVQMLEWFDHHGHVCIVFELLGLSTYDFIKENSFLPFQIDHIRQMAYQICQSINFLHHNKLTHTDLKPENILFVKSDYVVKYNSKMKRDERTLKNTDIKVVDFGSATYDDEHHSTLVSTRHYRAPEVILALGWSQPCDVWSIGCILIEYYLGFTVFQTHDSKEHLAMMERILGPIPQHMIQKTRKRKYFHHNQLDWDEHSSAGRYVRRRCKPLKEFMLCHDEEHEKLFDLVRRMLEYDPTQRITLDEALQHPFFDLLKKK
Sequence of Serine/threonine-protein kinase Nek2 (P51955 whole entry): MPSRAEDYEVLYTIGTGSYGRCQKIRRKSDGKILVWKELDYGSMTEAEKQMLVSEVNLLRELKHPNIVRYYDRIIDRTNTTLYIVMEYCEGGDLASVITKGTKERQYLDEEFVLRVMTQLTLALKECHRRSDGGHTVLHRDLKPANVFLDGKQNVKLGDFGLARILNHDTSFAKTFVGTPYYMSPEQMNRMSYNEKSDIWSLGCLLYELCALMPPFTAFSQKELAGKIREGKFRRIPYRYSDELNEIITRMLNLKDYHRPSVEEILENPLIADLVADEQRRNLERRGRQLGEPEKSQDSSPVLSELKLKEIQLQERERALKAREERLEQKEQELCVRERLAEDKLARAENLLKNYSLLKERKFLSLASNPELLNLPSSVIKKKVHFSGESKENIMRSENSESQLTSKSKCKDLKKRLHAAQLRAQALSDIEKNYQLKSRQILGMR
Sequence of Dual specificity tyrosine-phosphorylation-regulated kinase 1B (Q9Y463 whole entry): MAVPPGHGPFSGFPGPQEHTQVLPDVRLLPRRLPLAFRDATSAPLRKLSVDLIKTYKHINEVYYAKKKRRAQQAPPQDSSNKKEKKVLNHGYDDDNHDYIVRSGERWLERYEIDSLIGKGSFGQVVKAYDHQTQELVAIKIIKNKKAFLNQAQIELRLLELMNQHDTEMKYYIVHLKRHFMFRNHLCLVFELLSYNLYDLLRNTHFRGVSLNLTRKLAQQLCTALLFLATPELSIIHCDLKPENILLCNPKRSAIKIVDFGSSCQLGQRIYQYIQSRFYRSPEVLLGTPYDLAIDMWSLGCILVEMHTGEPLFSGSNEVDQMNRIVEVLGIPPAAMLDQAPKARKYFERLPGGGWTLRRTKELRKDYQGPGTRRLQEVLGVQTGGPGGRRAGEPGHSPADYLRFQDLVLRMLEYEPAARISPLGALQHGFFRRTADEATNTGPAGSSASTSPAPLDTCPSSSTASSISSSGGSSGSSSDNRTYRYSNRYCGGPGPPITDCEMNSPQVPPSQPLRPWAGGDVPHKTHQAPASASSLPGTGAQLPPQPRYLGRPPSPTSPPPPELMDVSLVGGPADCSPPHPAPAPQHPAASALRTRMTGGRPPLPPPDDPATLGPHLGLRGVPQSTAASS
Sequence of Mitogen-activated protein kinase kinase kinase 10 (Q02779 whole entry): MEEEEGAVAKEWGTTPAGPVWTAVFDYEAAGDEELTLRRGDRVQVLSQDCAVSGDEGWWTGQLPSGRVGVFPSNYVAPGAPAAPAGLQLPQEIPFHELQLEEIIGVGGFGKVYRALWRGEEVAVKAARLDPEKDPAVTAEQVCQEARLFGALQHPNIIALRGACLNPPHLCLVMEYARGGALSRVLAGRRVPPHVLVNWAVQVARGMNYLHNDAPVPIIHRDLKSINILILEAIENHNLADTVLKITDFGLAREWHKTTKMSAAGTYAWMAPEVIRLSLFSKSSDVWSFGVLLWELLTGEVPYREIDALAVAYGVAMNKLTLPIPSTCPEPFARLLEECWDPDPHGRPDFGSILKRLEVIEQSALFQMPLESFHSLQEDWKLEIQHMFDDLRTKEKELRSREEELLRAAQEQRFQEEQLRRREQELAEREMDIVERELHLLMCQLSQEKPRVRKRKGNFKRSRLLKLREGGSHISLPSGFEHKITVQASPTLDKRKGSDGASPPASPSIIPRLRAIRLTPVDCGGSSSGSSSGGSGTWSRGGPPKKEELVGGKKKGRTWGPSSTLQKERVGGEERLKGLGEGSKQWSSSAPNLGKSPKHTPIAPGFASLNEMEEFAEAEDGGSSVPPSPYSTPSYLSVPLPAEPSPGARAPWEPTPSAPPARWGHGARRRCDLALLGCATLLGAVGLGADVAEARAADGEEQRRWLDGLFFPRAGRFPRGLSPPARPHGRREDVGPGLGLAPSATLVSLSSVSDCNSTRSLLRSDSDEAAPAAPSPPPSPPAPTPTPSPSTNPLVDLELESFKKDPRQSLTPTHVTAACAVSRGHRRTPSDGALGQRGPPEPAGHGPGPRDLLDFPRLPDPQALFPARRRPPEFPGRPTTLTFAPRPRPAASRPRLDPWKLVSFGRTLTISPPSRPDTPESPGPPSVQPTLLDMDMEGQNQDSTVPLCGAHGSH
Sequence of Leucine-rich repeat serine/threonine-protein kinase 2 (Q5S007 whole entry): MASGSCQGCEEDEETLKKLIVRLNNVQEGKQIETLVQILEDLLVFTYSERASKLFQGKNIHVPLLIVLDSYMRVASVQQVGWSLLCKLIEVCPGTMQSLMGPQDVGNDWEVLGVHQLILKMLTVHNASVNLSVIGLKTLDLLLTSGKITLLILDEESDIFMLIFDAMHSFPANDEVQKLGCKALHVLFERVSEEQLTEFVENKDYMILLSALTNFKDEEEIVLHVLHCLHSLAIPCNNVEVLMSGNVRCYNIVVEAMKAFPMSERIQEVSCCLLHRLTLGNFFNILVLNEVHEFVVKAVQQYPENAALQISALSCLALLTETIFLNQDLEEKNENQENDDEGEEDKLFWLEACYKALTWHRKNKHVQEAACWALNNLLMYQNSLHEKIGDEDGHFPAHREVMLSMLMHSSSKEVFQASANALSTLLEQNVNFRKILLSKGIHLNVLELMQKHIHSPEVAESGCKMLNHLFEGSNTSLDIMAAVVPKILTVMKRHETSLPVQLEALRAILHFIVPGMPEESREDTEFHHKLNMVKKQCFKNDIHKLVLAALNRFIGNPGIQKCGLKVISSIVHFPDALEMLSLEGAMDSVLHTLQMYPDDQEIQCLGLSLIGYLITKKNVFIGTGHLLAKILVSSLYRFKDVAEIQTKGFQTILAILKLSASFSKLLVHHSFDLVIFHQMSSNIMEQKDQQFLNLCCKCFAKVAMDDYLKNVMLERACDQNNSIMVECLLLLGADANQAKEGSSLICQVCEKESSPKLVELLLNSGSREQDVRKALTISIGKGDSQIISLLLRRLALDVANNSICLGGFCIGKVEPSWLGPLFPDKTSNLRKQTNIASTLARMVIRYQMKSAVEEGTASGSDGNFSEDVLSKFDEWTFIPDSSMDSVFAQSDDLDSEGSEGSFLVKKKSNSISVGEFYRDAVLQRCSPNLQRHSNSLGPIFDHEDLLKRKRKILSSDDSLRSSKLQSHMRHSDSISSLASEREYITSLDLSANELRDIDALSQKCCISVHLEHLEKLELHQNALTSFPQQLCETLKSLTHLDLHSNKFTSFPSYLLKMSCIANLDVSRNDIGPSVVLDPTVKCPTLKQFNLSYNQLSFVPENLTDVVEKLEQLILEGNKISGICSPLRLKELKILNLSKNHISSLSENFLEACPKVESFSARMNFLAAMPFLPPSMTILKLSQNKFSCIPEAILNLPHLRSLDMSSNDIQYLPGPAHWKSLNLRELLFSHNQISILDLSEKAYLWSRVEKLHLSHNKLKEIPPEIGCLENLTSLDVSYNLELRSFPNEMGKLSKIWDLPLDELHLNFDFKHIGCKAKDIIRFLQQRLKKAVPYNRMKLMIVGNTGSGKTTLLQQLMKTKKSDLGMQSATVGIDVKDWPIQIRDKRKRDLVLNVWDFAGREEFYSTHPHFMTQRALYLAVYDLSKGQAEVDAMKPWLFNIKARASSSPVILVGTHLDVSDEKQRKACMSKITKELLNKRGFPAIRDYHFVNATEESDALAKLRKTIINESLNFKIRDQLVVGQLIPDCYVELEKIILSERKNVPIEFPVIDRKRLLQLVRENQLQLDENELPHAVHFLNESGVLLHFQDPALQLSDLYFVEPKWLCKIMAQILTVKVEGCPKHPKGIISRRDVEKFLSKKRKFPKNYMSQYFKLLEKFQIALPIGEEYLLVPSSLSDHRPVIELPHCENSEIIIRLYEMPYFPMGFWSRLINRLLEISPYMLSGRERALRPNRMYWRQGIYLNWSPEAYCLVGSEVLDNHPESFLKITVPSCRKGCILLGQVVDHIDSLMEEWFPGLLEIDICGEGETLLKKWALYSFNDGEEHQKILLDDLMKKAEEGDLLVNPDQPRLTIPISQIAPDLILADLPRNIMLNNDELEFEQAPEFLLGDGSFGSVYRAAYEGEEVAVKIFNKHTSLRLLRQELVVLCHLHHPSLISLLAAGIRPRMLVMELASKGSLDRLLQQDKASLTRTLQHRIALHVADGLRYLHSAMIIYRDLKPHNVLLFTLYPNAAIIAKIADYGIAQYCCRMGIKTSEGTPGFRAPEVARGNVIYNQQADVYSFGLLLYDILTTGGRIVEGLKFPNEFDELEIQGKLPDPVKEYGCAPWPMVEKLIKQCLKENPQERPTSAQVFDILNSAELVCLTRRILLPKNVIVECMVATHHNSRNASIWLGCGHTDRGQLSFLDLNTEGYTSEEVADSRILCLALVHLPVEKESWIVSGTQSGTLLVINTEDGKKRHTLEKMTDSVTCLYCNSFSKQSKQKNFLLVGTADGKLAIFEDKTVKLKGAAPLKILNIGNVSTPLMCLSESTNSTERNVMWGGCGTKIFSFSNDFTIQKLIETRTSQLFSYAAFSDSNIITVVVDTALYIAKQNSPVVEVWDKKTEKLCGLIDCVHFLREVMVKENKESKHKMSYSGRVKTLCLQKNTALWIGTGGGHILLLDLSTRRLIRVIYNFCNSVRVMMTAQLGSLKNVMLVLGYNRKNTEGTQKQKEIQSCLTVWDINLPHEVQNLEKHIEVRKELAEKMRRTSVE

For the compound `O=C(Nc1cccc(C(F)(F)F)n1)Nc1ccnc2cc(F)ccc12`, the figures for the Ki in assay [1] and in [2] were 1.26 µM (active) and 2.51 µM (active), respectively.
As to `Cc1cc2c(c(C#N)c1C)OC1(CCCCC1)C(N)C2=O` (stereo unspecified), the Ki (as a rule, the dissociation constant of the complex between target and ligand, obtained from inhibition or displacement) in assay [3] is 1.58 µM (active); in assay [4], 5.01 µM (active).
Regarding `Nc1nnc2sc3ccccc3n12`, the Ki in [2] is 31.6 µM (active); in assay [3], 39.8 µM (active); in [5], 63.1 µM (active); in [6] it was 79.4 µM (active); in assay [7] it was 63.1 µM (active); in [8], 39.8 µM (active). Moreover, the Ki in assay [9] is 39.8 µM (active).
For `O=C(O)c1ccc(Nc2ncc3c(n2)-c2ccc(Cl)cc2C(c2c(F)cccc2F)=NC3)cc1` [MLN-8054], the Ki in [10] was > 3.16 µM (inactive); in assay [11], > 10 µM (inactive); in assay [12], > 10 µM (inactive); in assay [13], > 7.94 µM (inactive); in [14] it was 1 µM (active).
